Results reported in patent US9227967B2, “Inhibitor compounds of semicarbazide-sensitive amine oxidases” (Proximagen Limited, priority 2010, dated 2016).
Counter-ions that a name gives are not always drawn.

biological target: T1, human SSAO (Homo sapiens, UniProt Q16853); experiment: SSAO enzyme inhibition assay (benzylamine substrate; HRP-coupled hydrogen peroxide detection or 14C-benzaldehyde detection); format: biochemical; details: purified recombinantly expressed human SSAO, benzylamine as substrate, r.t.; read-out: SSAO inhibitory activity IC50
T1 construct: made in house
T1 sequence (Q16853 29-763 limits assumed): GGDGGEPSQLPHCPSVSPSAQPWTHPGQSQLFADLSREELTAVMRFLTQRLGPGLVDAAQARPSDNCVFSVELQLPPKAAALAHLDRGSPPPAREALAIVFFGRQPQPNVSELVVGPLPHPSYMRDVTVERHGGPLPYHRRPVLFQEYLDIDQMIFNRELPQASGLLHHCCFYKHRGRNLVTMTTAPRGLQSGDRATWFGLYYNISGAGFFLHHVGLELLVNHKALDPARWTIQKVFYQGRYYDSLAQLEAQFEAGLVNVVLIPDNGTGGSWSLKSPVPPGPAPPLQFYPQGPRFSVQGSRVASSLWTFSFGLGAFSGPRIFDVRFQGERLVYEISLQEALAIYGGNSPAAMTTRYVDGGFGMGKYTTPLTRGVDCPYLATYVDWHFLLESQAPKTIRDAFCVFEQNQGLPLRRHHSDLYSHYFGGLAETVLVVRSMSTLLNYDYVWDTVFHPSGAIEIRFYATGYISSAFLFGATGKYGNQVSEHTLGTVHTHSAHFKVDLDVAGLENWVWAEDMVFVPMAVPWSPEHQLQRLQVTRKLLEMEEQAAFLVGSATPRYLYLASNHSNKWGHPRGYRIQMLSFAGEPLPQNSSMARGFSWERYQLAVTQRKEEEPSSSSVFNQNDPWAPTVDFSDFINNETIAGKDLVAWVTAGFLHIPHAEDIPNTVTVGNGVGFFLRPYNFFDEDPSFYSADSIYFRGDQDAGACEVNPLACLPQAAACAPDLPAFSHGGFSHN
Description: All primary assays were performed at r.t. with purified recombinantly expressed human SSAO. Enzyme was prepared essentially as described in Öhman et al. (Protein Expression and Purification 46 (2006) 321-331). In addition, secondary- and selectivity assays were performed using SSAO prepared from various tissues or purified rat recombinant SSAO. The enzyme activity was assayed with benzylamine as substrate by measuring either benzaldehyde production, using ^14C-labeled substrate, or by utilizing the production of hydrogen peroxide in a horseradish peroxidise (HRP) coupled reaction. Briefly, test compounds were dissolved in dimethyl sulfoxide (DMSO) to a concentration of 10 mM. Dose-response measurements were assayed by either creating 1:10 serial dilutions in DMSO to produce a 7 point curve or by making 1:3 serial dilutions in DMSO to produce 11 point curves. The top concentrations were adjusted depending on the potency of the compounds and subsequent dilution in reaction buffer yielded a final DMSO concentration ≦2%.
In a horseradish peroxidise (HRP) coupled reaction, hydrogen peroxide oxidation of 10-acetyl-3,7-dihydroxyphenoxazine produced resorufin, which is a highly fluorescent compound (Zhout and Panchuk-Voloshina. Analytical Biochemistry 253 (1997) 169-174; Amplex® Red Hydrogen Peroxide/peroxidise Assay kit, Invitrogen A22188). Enzyme and compounds in 50 mM sodium phosphate, pH 7.4 were set to pre-incubate in flat-bottomed microtiter plates for approximately 15 minutes before initiating the reaction by addition of a mixture of HRP, benzylamine and Amplex reagent. Benzylamine concentration was fixed at a concentration corresponding to the Michaelis constant, determined using standard procedures. Fluorescence intensity was then measured at several time points during 1-2 hours, exciting at 544 nm n and reading the emission at 590 nm. For the human SSAO assay final concentrations of the reagents in the assay wells were: SSAO enzyme 1 μg/ml, benzylamine 100 μM, Amplex reagent 20 μM, HRP 0.1 U/mL and varying concentrations of test compound. The inhibition was measured as % decrease of the signal compared to a control without inhibitor (only diluted DMSO). The background signal from a sample containing no SSAO enzyme was subtracted from all data points. Data was fitted to a four parameter logistic model and IC50 values were calculated using the GraphPad Prism 4 or XLfit 4 programs.
SSAO activity was assayed using 14C-labeled benzylamine and analysed by measuring radioactive benzaldehyde. In a white 96-well optiplate (Packard), 20 μL of diluted test compound was pre-incubated at r.t. with 20 μL SSAO enzyme for approximately 15 minutes with continuous agitation. All dilutions were made with PBS. The reaction was initiated by adding 20 μL of the benzylamine substrate solution containing [7-14C] Benzylamine hydrochloride (CFA589, GE Healthcare). The plate was incubated for 1 hour as above after which the reaction was stopped by acidification (10 μL 1 M HCl). Then 90 μL Micro Scint-E solution (Perkin-Elmer) was added to each well and the plate was continuously mixed for 15 minutes. Phase separation occurred instantly and activity was read in a Topcount scintillation counter (Perkin-Elmer). In the final reaction well, human recombinant SSAO concentration was 10 μg/ml. In order to optimize sensitivity, the substrate concentration was decreased as compared to the HRP coupled assay in order to get a higher fraction of radioactive product. In the human SSAO assay, benzylamine concentration was 40 μM (0.2 μCi/mL). Data was analysed as above.

**Q.** For COc1cncc2c1c(C1CCOCC1)nn2-c1ccc(Cl)cc1 [Compound 94, 1-(4-Chlorophenyl)-4-methoxy-3-(oxan-4-yl)-1H-pyrazolo[3,4-c]pyridine], which IC50 is on record?
**A.** Its IC50 is 500 to 2500 nM.

**Q.** For Clc1ccc(-n2nc(C3CCOCC3)c3ncncc32)cc1 [Compound 99, 1-(4-Chlorophenyl)-3-(oxan-4-yl)-1H-pyrazolo[4,3-d]pyrimidine], which IC50 is on record?
**A.** Its IC50 is 500 to 2500 nM.

**Q.** For NC1CCN(c2nn(-c3ccc(Cl)cc3)c3cnccc23)CC1 [Compound 71, 1-[1-(4-Chlorophenyl)-1H-pyrazolo[3,4-c]pyridin-3-yl]piperidin-4-amine], which IC50 is on record?
**A.** The IC50 was 100 to 500 nM.

**Q.** How did the IC50 turn out when Cc1ccc(-n2nc(N3CCC(C(N)=O)CC3)c3ccncc32)cc1 [Compound 54, 1-[1-(4-Methylphenyl)-1H-pyrazolo[3,4-c]pyridin-3-yl]piperidine-4-carboxamide] was run?
**A.** Its IC50 is under 100 nM.

**Q.** How did the IC50 turn out when CC(C)(C)OC(=O)N1CCC(c2cn(-c3ccc(Cl)cc3)c3cnccc23)CC1 [Compound 9, tert-Butyl 4-[1-(4-chlorophenyl)-1H-pyrrolo[2,3-c]pyridin-3-yl]piperidine-1-carboxylate] was run?
**A.** The IC50 was 500 to 2500 nM.

**Q.** For COCCN(C)c1nn(-c2ccc(C)cc2)c2cnccc12 [Compound 69, N-(2-Methoxyethyl)-N-methyl-1-(4-methylphenyl)-1H-pyrazolo[3,4-c]pyridin-3-amine], which IC50 is on record?
**A.** Its IC50 is 100 to 500 nM.

**Q.** For OCCC1CCN(Cc2cn(-c3ccc(Cl)cc3)c3cnccc23)CC1 [Compound 27, 2-(1-{[1-(4-Chlorophenyl)-1H-pyrrolo[2,3-c]pyridin-3-yl]methyl}piperidin-4-yl)ethan-1-ol], which IC50 is on record?
**A.** Its IC50 is 500 to 2500 nM.

**Q.** Which IC50 does the source give for O=C(CO)N1CCC(c2cn(-c3ccc(Cl)cc3)c3cnccc23)CC1 [Compound 15, 1-{4-[1-(4-Chlorophenyl)-1H-pyrrolo[2,3-c]pyridine-3-yl]piperidin-1-yl}-2-hydroxyethan-1-one] here?
**A.** Its IC50 is under 100 nM.

**Q.** Clc1ccc(-n2cc(C3CCOCC3)c3ncncc32)cc1 [Compound 98, 5-(4-Chlorophenyl)-7-(oxan-4-yl)-5H-pyrrolo[3,2-d]pyrimidine] was tested. Which IC50 did it give?
**A.** Its IC50 is 100 to 500 nM.

**Q.** Cc1ccc(-n2nc(C3CCOCC3)c3ccncc32)cc1 [Compound 82, 1-(4-Methylphenyl)-3-(oxan-4-yl)-1H-pyrazolo[3,4-c]pyridine] was tested. Which IC50 did it give?
**A.** Its IC50 is 100 to 500 nM.

**Q.** Which IC50 does the source give for Clc1ccc(-n2cc(C3CCNCC3)c3ccncc32)cc1 [Compound 10, 1-(4-Chlorophenyl)-3-piperidin-4-yl-1H-pyrrolo[2,3-c]pyridine trifluoroacetate] here?
**A.** The IC50 was 100 to 500 nM.

**Q.** How did the IC50 turn out when CC(C)(C)OC(=O)N1CCC(n2cc(-c3ccc(Cl)cc3)c3cnccc32)CC1 [Compound 2, tert-Butyl 4-[3-(4-chlorophenyl)-1H-pyrrolo[3,2-c]pyridin-1-yl]piperidine-1-carboxylate] was run?
**A.** Its IC50 is 500 to 2500 nM.

**Q.** For NCCCC(=O)N1CCC(c2cn(-c3ccc(Cl)cc3)c3cnccc23)CC1 [Compound 105, 2,2,2-Trifluoroacetic acid; 4-amino-1-{4-[1-(4-chlorophenyl)-1H-pyrrolo[2,3-c]pyridin-3-yl]piperidin-1-yl}butan-1-one], which IC50 is on record?
**A.** The IC50 was under 100 nM.

**Q.** Which IC50 does the source give for Cc1ccc(-n2nc(N3CCC(O)CC3)c3ccncc32)cc1 [Compound 74, 1-[1-(4-Methylphenyl)-1H-pyrazolo[3,4-c]pyridin-3-yl]piperidin-4-ol] here?
**A.** The IC50 was under 100 nM.

**Q.** Which IC50 does the source give for c1ccc(-n2nc(C3CCOCC3)c3ccncc32)cc1 [Compound 40, 3-(Oxan-4-yl)-1-phenyl-1H-pyrazolo[3,4-c]pyridine] here?
**A.** Its IC50 is 500 to 2500 nM.

**Q.** With Cc1ccc(-n2nc(C3CCOC3)c3ccncc32)cc1 (stereo not shown) [Compound 81, 1-(4-Methylphenyl)-3-(oxolan-3-yl)-1H-pyrazolo[3,4-c]pyridine] as the compound, how does the IC50 read?
**A.** The IC50 was 100 to 500 nM.

**Q.** Which IC50 does the source give for OCC1CCN(Cc2cn(-c3ccc(Cl)cc3)c3cnccc23)CC1 [Compound 28, (1-{[1-(4-Chlorophenyl)-1H-pyrrolo[2,3-c]pyridin-3-yl]methyl}piperidin-4-yl)methanol] here?
**A.** The IC50 was 100 to 500 nM.

**Q.** Cc1ccc(-n2cc(C3CCOCC3)c3ccncc32)cc1 [Compound 102, 1-(4-Methylphenyl)-3-(oxan-4-yl)-1H-pyrrolo[2,3-c]pyridine] was tested. Which IC50 did it give?
**A.** Its IC50 is under 100 nM.

**Q.** For FC1(F)CCN(c2nn(-c3ccc(Cl)cc3)c3cnccc23)CC1 [Compound 52, 1-[1-(4-Chlorophenyl)-1H-pyrazolo[3,4-c]pyridin-3-yl]-4,4-difluoropiperidine], which IC50 is on record?
**A.** The IC50 was 100 to 500 nM.

**Q.** NCCOC(=O)N1CCC(c2cn(-c3ccc(Cl)cc3)c3cnccc23)CC1 [Compound 106, 2-Aminoethyl 4-[1-(4-chlorophenyl)-1H-pyrrolo[2,3-c]pyridin-3-yl]piperidine-1-carboxylate] was tested. Which IC50 did it give?
**A.** Its IC50 is under 100 nM.

**Q.** For NCCC(=O)N1CCN(c2nn(-c3ccc(Cl)cc3)c3cnccc23)CC1 [Compound 76], which IC50 is on record?
**A.** Its IC50 is 100 to 500 nM.

**Q.** With Clc1ccc(-c2cn(C3CCNCC3)c3ccncc23)cc1 [Compound 5, Bis(2,2,2-trifluoroacetic acid); 4-[3-(4-chlorophenyl)-1H-pyrrolo[3,2-c]pyridin-1-yl]piperidine] as the compound, how does the IC50 read?
**A.** The IC50 was 100 to 500 nM.

**Q.** Which IC50 does the source give for OCCN1CCC(c2cn(-c3ccc(Cl)cc3)c3cnccc23)CC1 [Compound 18, 2-{4-[1-(4-Chlorophenyl)-1H-pyrrolo[2,3-c]pyridin-3-yl]piperidin-1-yl}ethan-1-ol] here?
**A.** Its IC50 is 100 to 500 nM.

**Q.** CN(C)CC(=O)N1CCC(c2cn(-c3ccc(Cl)cc3)c3cnccc23)CC1 [Compound 14, 1-{4-[1-(4-Chlorophenyl)-1H-pyrrolo[2,3-c]pyridin-3-yl]piperidin-1-yl}-2-(dimethyl-amino)ethan-1-one] was tested. Which IC50 did it give?
**A.** Its IC50 is 100 to 500 nM.

**Q.** For Fc1ccc(-n2nc(N3CCOCC3)c3ccncc32)cc1 [Compound 55, 4-[1-(4-Fluorophenyl)-1H-pyrazolo[3,4-c]pyridin-3-yl]morpholine], which IC50 is on record?
**A.** Its IC50 is 100 to 500 nM.

**Q.** Which IC50 does the source give for OC1CCN(c2nn(-c3ccc(Cl)cc3)c3cnccc23)CC1 [Compound 53, 1-[1-(4-Chlorophenyl)-1H-pyrazolo[3,4-c]pyridin-3-yl]piperidin-4-ol] here?
**A.** The IC50 was under 100 nM.

**Q.** Which IC50 does the source give for Clc1ccc(-n2nc(N3CCOCC3)c3ccncc32)cc1 [Compound 56, 4-[1-(4-Chlorophenyl)-1H-pyrazolo[3,4-c]pyridin-3-yl]morpholine] here?
**A.** Its IC50 is under 100 nM.

**Q.** How did the IC50 turn out when Cc1ccc(-n2nc(C3CCOCC3)c3ccncc32)cn1 [Compound 47, 2-Methyl-5-[3-(oxan-4-yl)-1H-pyrazolo[3,4-c]pyridin-1-yl]pyridine] was run?
**A.** Its IC50 is 500 to 2500 nM.

**Q.** N#CCCN1CCC(c2cn(-c3ccc(Cl)cc3)c3cnccc23)CC1 [Compound 21, 3-{4-[1-(4-Chlorophenyl)-1H-pyrrolo[2,3-c]pyridine-3-yl]piperidin-1-yl}propanenitrile hydrochloride] was tested. Which IC50 did it give?
**A.** Its IC50 is 100 to 500 nM.

**Q.** Which IC50 does the source give for Clc1ccc(-n2cc(CN3CCOCC3)c3ccncc32)cc1 [Compound 29, 4-{[1-(4-Chlorophenyl)-1H-pyrrolo[2,3-c]pyridin-3-yl]methyl}morpholine] here?
**A.** Its IC50 is 500 to 2500 nM.

**Q.** For C[C@@H]1CN(c2nn(-c3ccc(Cl)cc3)c3cnccc23)C[C@H](C)O1 [Compound 62, (2S,6R)-4-[1-(4-Chlorophenyl)-1H-pyrazolo[3,4-c]pyridin-3-yl]-2,6-dimethylmorpholine], which IC50 is on record?
**A.** Its IC50 is 100 to 500 nM.
